Tested on: subject with a body weight of 51.5 kg
Assay: GnRH stimulation test (LH and FSH levels)
Type: in vivo, human
Protocol: In the test, a subject with a body weight of 51.5 kg was included, and their luteinizing hormone (LH) and follicle-stimulating hormone (FSH) levels were measured as test indicators both in mIU/mL.

Substance: GnRH: stimulating agent of the GnRH stimulation test; not further described (QHWSYGLRPG; Gonadoliberin-1; UniProt P01148 24-33, looked up)
- FSH (0 min (reference time)): 3.49 mIU/mL
- LH (0 min (reference time)): 0.99 mIU/mL
- FSH (25 min): 4.47 mIU/mL
- LH (25 min): 3.2 mIU/mL
- FSH (45 min): 5.44 mIU/mL
- LH (45 min): 3.76 mIU/mL
- FSH (90 min): 6.21 mIU/mL
- LH (90 min): 3.76 mIU/mL
- FSH (180 min): 6.12 mIU/mL
- LH (180 min): 2.46 mIU/mL
- FSH maximum level (maximum stimulated level): 6.21 mIU/mL
- LH maximum level (maximum stimulated level): 3.76 mIU/mL

Reference: patent US10675333B2, “Infusion pump” (priority 2016, dated 2020)
